One experiment relates to rat smooth muscle cells. Kind of experiment: Antiproliferative activity in cell cultures (rat smooth muscle cells), relative to heparin. Format: cell-based. The note with it: 100 μg/ml, 48 h, heparin at same concentration = reference. Here is the method:
The antiproliferative activity of a substance is expressed as the ri value which is a comparative value to the corresponding activity of heparin and which was determined in cell cultures as follows: rat smooth muscle cells were applied to cell culture plates in a density of 8×10^3 cells/well, medium: DMEM (Dulbecco Modified Eagle Medium) with 10% FCS (fetal calf serum); cultivation at 37° C. and 5% CO2. After 4 hours, the number of adhered cells was determined and the substances to be tested (100 μg/ml, dissolved in H2 O) were added. […] Subsequently,the cells were incubated for 48 h. and thereafter the cell count was determined once more.
The inhibition i of the cell growth, that is, the reduction in the growth rate of the cells in per cent compared to the control, was calculated from these values. [formula] with the growth rate μ being calculated as [formula] in which Z is the number of cells and d is the time in days.
Finally, ri --the relative inhibitory activity--which expresses the activity of a substance (at 100 μg/ml) in comparison to the activity of heparin in the same concentration in the same experiment, was calculated [formula] Blood coagulation inhibition

The target in a further experiment is T1, thrombin (Bos taurus, UniProt P00735).
T1 construct: purchased Roche Basle
Kind of experiment: Inhibition of thrombin in the chromogenic substrate assay. In kind it is biochemical. The note with it: plasma, antithrombin III, substrate S-2238, 37° C., pH 8.4. Here is the method:
(§1) The blood coagulation-inhibiting activity was determined as follows:
(§2) The buffer solution used consisted of 50 mM Tris buffer, 180 mM NaCl, 7.5 mM EDTA Na2, 1% PEG 6000 and 0.02% Tween 80, pH 8.4. The assay solution consisted of 50 μl of buffer, 30 μl of antithombin III (1 U/ml, Kabi Diagnostica) and 20 μl of plasma which contained various concentrations of test compounds. 30 μl of sample solution and 20 μl of water with 180 μl of thrombin (1 U/ml, thrombin reagent, Roche Basle) were added to the test cuvette in the automatic analyzer.

The next experiment has as its target factor Xa (Bos taurus, UniProt P00743). Description: Inhibition of factor Xa in the chromogenic substrate assay. In kind it is biochemical. The note with it: plasma, antithrombin III, substrate S-2222, 37° C., pH 8.4. Here is the method: [Worded in the source for another target; used here, by the source, with some conditions changed.] as §1, §2
Experiment [1] relates to neointima in rat carotids. Kind of experiment: In vivo assay for antiproliferative activity in damaged rat carotids (neointima after balloonisation). Set-up: species or system rat (male Wistar Kyoto). The settings on record: 0.3 mg/kg/h i.v. As for the experimental part:
In vivo assay for determining the antiproliferative activity of the compounds in accordance with the invention in damaged rat carotids.
The left carotids of male Wistar Kyoto rats (300-400 g) were, after narcosis, damaged with a 2F embolectomy catheter by pulling the catheter in the pumped-up state through the vessel three times. After wound management, the animals were kept in pairs with standard feed and water ad libidum.
The compounds were administered in concentrations of 0.3-1 mg/kg/h i.v. For this purpose, an osmotic minipump was implanted under the dorsal skin of the animals during the narcosis and was connected with the jugular vein. Thus, the compounds could be administered constantly during the entire test period of 14 days.
After 14 days, proliferative tissue (neointima) had formed, the size of which could be determined morphometrically on histological cross-sections.In order to do this, the rats were sacrificed and perfusion-fixed with glutaraldehyde.

This is an account of results in patent US5830920A, “Sulfuric acid esters of sugar alcohols” (Hoffmann-La Roche Inc., priority 1995, dated 1998).

Sequence of factor Xa (P00743 234-492 limits assumed): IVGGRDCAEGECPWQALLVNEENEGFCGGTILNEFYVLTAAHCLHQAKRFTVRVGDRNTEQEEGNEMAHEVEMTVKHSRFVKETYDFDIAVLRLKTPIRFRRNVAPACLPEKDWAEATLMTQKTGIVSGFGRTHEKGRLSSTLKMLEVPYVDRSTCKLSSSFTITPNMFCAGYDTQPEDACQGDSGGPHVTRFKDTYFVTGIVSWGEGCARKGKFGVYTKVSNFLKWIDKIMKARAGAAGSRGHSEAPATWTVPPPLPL
Sequence of factor Xa (P00743 41-180 limits assumed): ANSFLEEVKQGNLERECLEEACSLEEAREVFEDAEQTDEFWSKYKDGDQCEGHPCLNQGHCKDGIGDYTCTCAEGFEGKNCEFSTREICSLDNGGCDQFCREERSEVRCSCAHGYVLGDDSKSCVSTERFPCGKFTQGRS

Turning to “2,3,4,5-tetra-O-sulfo-1,6-bis-O-[4-[4-(2,3,4,5-tetra-O-sulfo-D-arabinit-1- yloxy)-benzyl]-phenyl]-D-mannitol dodecasodium salt [Example 43]”, in the experiment on rat smooth muscle cells, the “Antiproliferative Activity ri (relative inhibitory activity compared to heparin)” value worked out at 1.3. Also, the “Anticoagulant Activity IC50 Thrombin” value at thrombin is more than 1000 µg/mL. In addition, the “Anticoagulant Activity IC50 Factor Xa” value at factor Xa is more than 1000 µg/mL.
Consider “1,6-bis-O-[4-[(E)-2-[benzyl 2,6-didesoxy-2-[4-(2,3,4,5,6-penta-O-sulfo-D-glucit-1-ylamino)-3-nitro-benzoyl-amino]-3,4-di-O-sulfo-a-D-glucopyranosid-6-ylcarbamoyl]-vinyl]-phenyl]-2,3,4,5-tetra-O-sulfo-galactitol octadecasodium salt [Example 61]”, for which the “Antiproliferative Activity ri (relative inhibitory activity compared to heparin)” value in the experiment on rat smooth muscle cells came out at 2.4. Moreover, on thrombin, the “Anticoagulant Activity IC50 Thrombin” value is more than 1000 µg/mL. For the same substance, on factor Xa, the “Anticoagulant Activity IC50 Factor Xa” value was more than 1000 µg/mL.
Heparin [reference compound]: in the experiment on rat smooth muscle cells, the “Antiproliferative Activity ri (relative inhibitory activity compared to heparin)” value was found to be 1.0. On thrombin, the “Anticoagulant Activity IC50 Thrombin” value was found to be 1.9 µg/mL. Also, on factor Xa, the “Anticoagulant Activity IC50 Factor Xa” value turned out to be 2.7 µg/mL.
In the case of “1,6-bis-O-[4-[2-[benzyl-2,6-didesoxy-6-(2,3,4,5,6-penta-O-sulfo-D-gluconoylamino)-3,4-di-O-sulfo-a-D-glucopyranosid-2-ylcarbamoyl]-ethyl]-phenyl]-2,3,4,5-tetra-O-sulfo-galactitol octadecasodium salt [Example 58]”, the “Antiproliferative Activity ri (relative inhibitory activity compared to heparin)” value in the experiment on rat smooth muscle cells is 1.8. Moreover, the “Anticoagulant Activity IC50 Thrombin” value on thrombin was more than 1000 µg/mL. The “Anticoagulant Activity IC50 Factor Xa” value at factor Xa was more than 1000 µg/mL.
For the substance “1,6-bis-O-[6-[benzyl 2,6-didesoxy-2-[3-nitro-4-(2,3,4,5,6-penta-O-sulfo-D-glucit-1-ylamino)-benzoylamino]-3,4-di-O-sulfo-a-D-glucopyranosid-6-ylcarbamoyl]-naphthalen-2-yl]-2,3,4,5-tetra-O-sulfo-galactitol octadecasodium salt [Example 59]”, the “Antiproliferative Activity ri (relative inhibitory activity compared to heparin)” value in the experiment on rat smooth muscle cells is reported as 1.8. Also, the “Anticoagulant Activity IC50 Thrombin” value at thrombin was more than 1000 µg/mL. Moreover, the “Anticoagulant Activity IC50 Factor Xa” value at factor Xa was more than 1000 µg/mL.
As to “1,6-bis-O-[4-[4-O-[4-[(E)-2-[methyl-(2,3,4,5,6-penta-O-sulfo-D-glucit-1-yl)-carbamoyl]-vinyl]-phenyl]-2,3-di-O-sulfo-D-threit-1-yloxy]-phenyl]-2,3,4,5-tetra-O-sulfo-galactitol octadecasodium salt [Example 52]”, in the experiment on rat smooth muscle cells, the “Antiproliferative Activity ri (relative inhibitory activity compared to heparin)” value was 0.8. For the same substance, the “Anticoagulant Activity IC50 Thrombin” value at thrombin is more than 1000 µg/mL. Moreover, the “Anticoagulant Activity IC50 Factor Xa” value on factor Xa was more than 1000 µg/mL.
Turning to “1,6-didesoxy-2,3,4,5-tetra-O-sulfo-1,6-bis-[3-(2,3,4,5-tetra-O-sulfo-D-arabinit-1-yloxy)-naphthalen-2-ylcarbonylamino]-galactitol dodecasodium salt [Example 45]”, in the experiment on rat smooth muscle cells, the “Antiproliferative Activity ri (relative inhibitory activity compared to heparin)” value is given as 1.4. In addition, the “Anticoagulant Activity IC50 Thrombin” value on thrombin is more than 1000 µg/mL. The “Anticoagulant Activity IC50 Factor Xa” value on factor Xa was more than 1000 µg/mL.
In the case of “1,6-bis-O-[4-[4-O-[4-[(E)-2-(2,3,4,5,6-penta-O-sulfo-D-glucit-1-ylcarbamoyl)-vinyl]-phenyl]-2,3-di-O-sulfo-D-threit-1-yloxy]-phenyl]-2,3,4,5-tetra-O- sulfo-galactitol octadecasodium salt [Example 48]”, the “Antiproliferative Activity ri (relative inhibitory activity compared to heparin)” value with rat smooth muscle cells turned out to be 2.7. For the same substance, the “Anticoagulant Activity IC50 Thrombin” value on thrombin was more than 1000 µg/mL. For the same substance, the “Anticoagulant Activity IC50 Factor Xa” value at factor Xa was more than 1000 µg/mL.
On to “1,6-Bis-O-[4-[2-(2,3,4,5,6-penta-O-sulfo-D-glucit-1-ylcarbamoyl)-ethyl]-phenyl]-2,3,4,5-tetra-O-sulfo-galactitol tetradecasodium salt [Example 6]”, for which the “Antiproliferative Activity ri (relative inhibitory activity compared to heparin)” value in the experiment with rat smooth muscle cells was found to be 0.7. Besides, the “Anticoagulant Activity IC50 Thrombin” value on thrombin was more than 1000 µg/mL. Also, in experiment [1] (14 days, comparison with heparin), the “effect on neointima compared to concentrated heparin” value is “comparable effect to that of concentrated heparin”. The “cross sectional area of the neointima in rat carotids 14 days after balloonisation” value in experiment [1] (osmotic minipump) is “significantly reduced (p<0.01, t-test)”. The “Anticoagulant Activity IC50 Factor Xa” value at factor Xa is more than 1000 µg/mL.
For the substance “1,6-Bis-O-[6-(2,3,4,5,6-penta-O-sulfo-D-glucit-1-ylcarbamoyl)-naphthalen-2- yl]-2,3,4,5-tetra-O-sulfo-galactitol tetradecasodium salt [Example 16]”, the “Antiproliferative Activity ri (relative inhibitory activity compared to heparin)” value in the experiment on rat smooth muscle cells is listed as 2.1. The “Anticoagulant Activity IC50 Thrombin” value at thrombin is more than 1000 µg/mL. In addition, the “Anticoagulant Activity IC50 Factor Xa” value on factor Xa is more than 1000 µg/mL.
Regarding “1,6-bis-O-[4-[2-[4-(2,3,4,5,6-penta-O-sulfo-D-glucit-1-ylcarbamoyl)-phenyl]-ethyl]-phenyl]-2,3,4,5-tetra-O-sulfo-galactitol tetradecasodium salt [Example 11]”, in the experiment with rat smooth muscle cells, the “Antiproliferative Activity ri (relative inhibitory activity compared to heparin)” value is 2.2. Moreover, the “Anticoagulant Activity IC50 Thrombin” value at thrombin is more than 1000 µg/mL. For the same substance, the “Anticoagulant Activity IC50 Factor Xa” value at factor Xa was more than 1000 µg/mL.
As for “1,6-bis-O-[3-[benzyl 2,6-didesoxy-6-(2,3,4,5,6-penta-O-sulfo-D-gluconoylamino)-3,4-di-O-sulfo-a-D-glucopyranosid-2-ylcarbamoyl]-naphthalen-1-yl]-2,3,4,5-tetra-O-sulfo-galactitol octadecasodium salt [Example 56]”, the “Antiproliferative Activity ri (relative inhibitory activity compared to heparin)” value in the experiment on rat smooth muscle cells was found to be 1.7. For the same substance, the “Anticoagulant Activity IC50 Thrombin” value at thrombin was more than 1000 µg/mL. For the same substance, at factor Xa, the “Anticoagulant Activity IC50 Factor Xa” value was more than 1000 µg/mL.
Take “1,6-bis-O-[3-biphenyl-4-ylmethoxy-5-(2,3,4,5,6-penta-O-sulfo-D-glucit-1-ylcarbamoyl)-phenyl]-2,3,4,5-tetra-O-sulfo-galactitol tetradecasodium salt [Example 17]”: the “Antiproliferative Activity ri (relative inhibitory activity compared to heparin)” value with rat smooth muscle cells is 1.5. For the same substance, at thrombin, the “Anticoagulant Activity IC50 Thrombin” value was more than 1000 µg/mL. In addition, on factor Xa, the “Anticoagulant Activity IC50 Factor Xa” value is more than 1000 µg/mL.
As for “1,6-bis-O-[3-(2,3,4,5,6-penta-O-sulfo-D-glucit-1-ylcarbamoyl)-naphthalen-2-yl]-2,3,4,5-tetra-O-sulfo-galactitol tetradecasodium salt [Example 14]”, the “Antiproliferative Activity ri (relative inhibitory activity compared to heparin)” value in the experiment on rat smooth muscle cells is listed as 1.5. The “Anticoagulant Activity IC50 Thrombin” value at thrombin is more than 1000 µg/mL. The “Anticoagulant Activity IC50 Factor Xa” value on factor Xa was more than 1000 µg/mL.
For “1,6-bis-O-[3-(2,3,4,5-tetra-O-sulfo-D-arabinit-1-yloxy)-naphthalen-2-yl]-2,3,4,5-tetra-O-sulfo-galactitol dodecasodium salt [Example 40]”, the “Antiproliferative Activity ri (relative inhibitory activity compared to heparin)” value with rat smooth muscle cells is listed as 1.4. Also, the “Anticoagulant Activity IC50 Thrombin” value at thrombin was more than 1000 µg/mL. The “Anticoagulant Activity IC50 Factor Xa” value at factor Xa was more than 1000 µg/mL.
Consider “1,6-bis-O-[6-[(S)-2,3-bis-sulfooxy-propoxy]-3-(2,3,4,5,6-penta-O-sulfo-D-glucit 1-ylcarbamoyl)-naphthalen-2-yl]-2,3,4,5-tetra-O-sulfo-galactitol octadecasodium salt [Example 22]”, for which, in the experiment with rat smooth muscle cells, the “Antiproliferative Activity ri (relative inhibitory activity compared to heparin)” value stood at 2.1. For the same substance, the “Anticoagulant Activity IC50 Thrombin” value at thrombin is more than 1000 µg/mL. Also, the “Anticoagulant Activity IC50 Factor Xa” value at factor Xa is more than 1000 µg/mL.
